From ChEMBL document CHEMBL1240532, “Spiroindolones, a potent compound class for the treatment of malaria” (Science, 2010)
≈ marks a conversion by molar mass, not a printed value.

Key:
[1] = Intrinsic clearance in rat liver microsome; format: ADME; details: liver microsomes
Plasmodium falciparum [2] = assay: Antimalarial activity against chloroquine and pyrimethamine-resistant Plasmodium falciparum V1/S after 48 hrs incubation by [3H]hypoxanthine incorporation assay
[3] = target: Voltage-gated L-type calcium channel (Rattus norvegicus, UniProt P22002+Q02485+P27732); assay: Binding affinity to rat L-type calcium channel
D(4) dopamine receptor = D(4) dopamine receptor (Homo sapiens, UniProt P21917); assay: Binding affinity to human recombinant dopamine D4.4 receptor
Sequence of D(4) dopamine receptor (P21917 whole entry): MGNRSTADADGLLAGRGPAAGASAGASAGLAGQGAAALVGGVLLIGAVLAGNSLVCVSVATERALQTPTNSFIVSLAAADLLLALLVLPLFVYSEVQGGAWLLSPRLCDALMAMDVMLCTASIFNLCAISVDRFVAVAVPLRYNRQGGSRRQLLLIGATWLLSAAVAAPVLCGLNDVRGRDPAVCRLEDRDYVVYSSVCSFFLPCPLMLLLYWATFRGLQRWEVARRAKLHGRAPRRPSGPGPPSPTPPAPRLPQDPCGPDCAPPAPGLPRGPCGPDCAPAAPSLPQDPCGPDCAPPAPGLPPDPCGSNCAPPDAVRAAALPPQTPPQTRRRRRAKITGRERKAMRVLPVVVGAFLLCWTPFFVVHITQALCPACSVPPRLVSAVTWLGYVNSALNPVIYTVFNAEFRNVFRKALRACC

[4] = Partition coefficient, log P of the compound at pH 7.4; format: physicochemical; details: octanol/water
Plasmodium berghei [5] = assay: Antimalarial activity against Plasmodium berghei GFP ANKA infected in NMRI mice (Mus musculus) assessed as reduction in parasitaemia dosed in ETPGS formulation 1 day post infection measured 72 hrs post infection; format: functional
Histamine H2 receptor = Histamine H2 receptor (Homo sapiens, UniProt P25021); assay: Binding affinity to human recombinant histamine H2 receptor
[6] = target: 5-hydroxytryptamine receptor 2A (Homo sapiens, UniProt P28223); assay: Binding affinity to human recombinant serotonin 5-HT2A receptor
Plasmodium falciparum [7] = assay: Antimalarial activity against pyrimethamine-resistant Plasmodium falciparum 7G8 after 48 hrs incubation by [3H]hypoxanthine incorporation assay
[8] = target: Voltage-gated inwardly rectifying potassium channel KCNH2 (Homo sapiens, UniProt Q12809); assay: Inhibition of human ERG
Sequence of Voltage-gated inwardly rectifying potassium channel KCNH2 (Q12809 whole entry): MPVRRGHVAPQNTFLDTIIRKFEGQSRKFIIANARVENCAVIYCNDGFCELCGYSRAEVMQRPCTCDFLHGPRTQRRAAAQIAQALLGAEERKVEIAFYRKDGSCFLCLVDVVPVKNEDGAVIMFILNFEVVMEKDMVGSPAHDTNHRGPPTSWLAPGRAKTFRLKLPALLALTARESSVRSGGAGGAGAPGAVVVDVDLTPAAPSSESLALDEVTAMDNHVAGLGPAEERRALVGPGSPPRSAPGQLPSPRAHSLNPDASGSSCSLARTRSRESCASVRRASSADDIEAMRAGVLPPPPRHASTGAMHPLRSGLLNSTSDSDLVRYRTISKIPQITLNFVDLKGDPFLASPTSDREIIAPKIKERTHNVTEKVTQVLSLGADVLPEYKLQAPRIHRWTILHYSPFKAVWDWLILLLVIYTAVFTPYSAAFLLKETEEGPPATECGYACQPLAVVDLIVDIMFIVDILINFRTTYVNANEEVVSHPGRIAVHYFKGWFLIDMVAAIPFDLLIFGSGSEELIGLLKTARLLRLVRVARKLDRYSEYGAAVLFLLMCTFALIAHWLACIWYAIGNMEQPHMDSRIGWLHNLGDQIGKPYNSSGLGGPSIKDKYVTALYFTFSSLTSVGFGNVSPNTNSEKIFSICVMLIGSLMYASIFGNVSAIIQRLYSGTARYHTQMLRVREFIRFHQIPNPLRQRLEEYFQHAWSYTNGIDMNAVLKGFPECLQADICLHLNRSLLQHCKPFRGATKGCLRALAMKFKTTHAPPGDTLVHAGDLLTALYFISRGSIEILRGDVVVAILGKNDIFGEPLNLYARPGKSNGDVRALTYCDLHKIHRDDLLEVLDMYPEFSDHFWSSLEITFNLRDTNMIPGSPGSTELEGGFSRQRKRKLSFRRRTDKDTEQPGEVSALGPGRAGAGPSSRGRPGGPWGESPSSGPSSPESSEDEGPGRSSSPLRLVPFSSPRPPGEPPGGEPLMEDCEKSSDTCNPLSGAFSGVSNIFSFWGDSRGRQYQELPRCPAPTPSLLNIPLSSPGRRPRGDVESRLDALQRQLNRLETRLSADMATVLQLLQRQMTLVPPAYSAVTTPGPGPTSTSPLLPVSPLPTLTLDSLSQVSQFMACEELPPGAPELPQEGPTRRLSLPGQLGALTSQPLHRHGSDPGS

[9] = target: Amine oxidase [flavin-containing] A (Homo sapiens, UniProt P21397); assay: Binding affinity to human recombinant MAOM
Sequence of Amine oxidase [flavin-containing] A (P21397 whole entry): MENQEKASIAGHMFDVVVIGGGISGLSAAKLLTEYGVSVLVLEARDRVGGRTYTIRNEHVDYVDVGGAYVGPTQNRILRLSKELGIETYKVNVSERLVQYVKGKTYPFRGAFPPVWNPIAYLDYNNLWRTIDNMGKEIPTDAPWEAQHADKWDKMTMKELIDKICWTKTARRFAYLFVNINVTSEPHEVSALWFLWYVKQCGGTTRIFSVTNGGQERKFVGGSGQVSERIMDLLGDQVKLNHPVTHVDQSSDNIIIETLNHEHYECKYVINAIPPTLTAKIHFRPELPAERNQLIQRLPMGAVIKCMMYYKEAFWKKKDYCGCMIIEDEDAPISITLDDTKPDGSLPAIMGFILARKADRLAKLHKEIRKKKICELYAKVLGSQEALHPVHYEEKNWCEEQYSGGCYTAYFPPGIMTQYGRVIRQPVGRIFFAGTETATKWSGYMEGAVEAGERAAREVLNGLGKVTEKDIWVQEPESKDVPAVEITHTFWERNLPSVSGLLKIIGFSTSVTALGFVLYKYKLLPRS

Histamine H1 receptor = Histamine H1 receptor (Homo sapiens, UniProt P35367); assay: Binding affinity to human recombinant histamine H1 receptor
Plasmodium berghei [10] = assay: Antimalarial activity against Plasmodium berghei GFP ANKA infected in NMRI mice (Mus musculus) assessed as survival at 10 mg/kg, perorally administered through 0.5% MCM/0.1%solutol HS15 formulation 24 hrs post infection for 3 days measured 96 hrs post infection; format: functional; details: route oral
Plasmodium falciparum [11] = assay: microbe, parasite or virus in culture; details: Dd2, 72 h
Endothelin-1 receptor = Endothelin-1 receptor (Homo sapiens, UniProt P25101); assay: Binding affinity to human recombinant endothelin A receptor
Plasmodium falciparum [12] = assay: Antimalarial activity against Plasmodium falciparum 3D7 after 48 hrs incubation by [3H]hypoxanthin incorporation assay
Vasopressin V1a receptor = Vasopressin V1a receptor (Homo sapiens, UniProt P37288); assay: Binding affinity to human recombinant vasopressin V1a receptor
Plasmodium berghei [13] = assay: Antimalarial activity against Plasmodium berghei GFP ANKA infected in NMRI mice (Mus musculus) assessed as reduction in parasitaemia at 30 mg/kg, perorally administered through 0.5% MCM/0.1%solutol HS15 formulation 24 hrs post infection for 3 days measured 96 hrs post infection; format: functional; set-up: scale not given: the % may be the effect or the level left; details: route oral
[14] = Oral bioavailability in CD1 mouse at 24.6 mg/kg; format: ADME, organism-based; details: in vivo
in vivo = details: CD1, mouse, iv, 5.4 mg/kg
Description: Elimination half life in CD1 mouse at 5.4 mg/kg, iv

[15] = target: Growth hormone secretagogue receptor type 1 (Homo sapiens, UniProt Q92847); assay: Binding affinity to human recombinant Ghrelin receptor
Glucocorticoid receptor = Glucocorticoid receptor (Homo sapiens, UniProt P04150); assay: Binding affinity to human recombinant glucocorticoid receptor
Sequence of Glucocorticoid receptor (P04150 whole entry): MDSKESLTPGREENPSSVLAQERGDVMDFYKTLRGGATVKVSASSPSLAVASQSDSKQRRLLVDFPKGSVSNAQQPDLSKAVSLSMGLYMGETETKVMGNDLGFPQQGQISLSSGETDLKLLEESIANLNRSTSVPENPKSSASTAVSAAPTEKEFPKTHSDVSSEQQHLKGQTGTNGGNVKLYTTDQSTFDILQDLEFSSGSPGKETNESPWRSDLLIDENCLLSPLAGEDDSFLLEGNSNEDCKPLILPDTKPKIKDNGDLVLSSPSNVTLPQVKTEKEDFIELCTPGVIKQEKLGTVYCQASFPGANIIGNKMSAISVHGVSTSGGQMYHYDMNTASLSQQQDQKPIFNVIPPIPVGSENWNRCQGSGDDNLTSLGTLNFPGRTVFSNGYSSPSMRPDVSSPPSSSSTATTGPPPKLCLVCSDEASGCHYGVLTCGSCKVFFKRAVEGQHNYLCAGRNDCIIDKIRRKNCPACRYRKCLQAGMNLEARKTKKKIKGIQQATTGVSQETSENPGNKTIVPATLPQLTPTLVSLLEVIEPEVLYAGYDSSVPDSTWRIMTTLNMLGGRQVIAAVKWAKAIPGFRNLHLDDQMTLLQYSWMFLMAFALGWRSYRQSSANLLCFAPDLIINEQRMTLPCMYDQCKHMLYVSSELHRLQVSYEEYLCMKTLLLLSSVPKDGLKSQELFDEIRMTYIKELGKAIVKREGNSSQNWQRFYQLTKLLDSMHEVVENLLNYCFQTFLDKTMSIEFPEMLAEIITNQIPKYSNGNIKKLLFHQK

[16] = target: Prostaglandin G/H synthase 1 (Homo sapiens, UniProt P23219); assay: Binding affinity to human recombinant COX1
[17] = Mutagenic activity in Salmonella Typhimurium by Ames test; format: toxicity; details: salmonella enterica subsp. enterica serovar typhimurium
B1 bradykinin receptor = B1 bradykinin receptor (Homo sapiens, UniProt P46663); assay: Binding affinity to human recombinant bradykinin B1 receptor
Plasmodium berghei [18] = assay: Antimalarial activity against Plasmodium berghei GFP ANKA infected in NMRI mice (Mus musculus) assessed as cure rate at 50 mg/kg, perorally administered through 0.5% MCM/0.1%solutol HS15 formulation 24 hrs post infection for 3 days measured on day 30 post infection; format: functional; details: route oral
[19] = target: 5-hydroxytryptamine receptor 3A (Homo sapiens, UniProt P46098); assay: Binding affinity to human recombinant serotonin 5HT3 receptor
[20] = target: 5-hydroxytryptamine receptor 2B (Homo sapiens, UniProt P41595); assay: Binding affinity to human recombinant serotonin 5-HT2B receptor
Sequence of 5-hydroxytryptamine receptor 2B (P41595 whole entry): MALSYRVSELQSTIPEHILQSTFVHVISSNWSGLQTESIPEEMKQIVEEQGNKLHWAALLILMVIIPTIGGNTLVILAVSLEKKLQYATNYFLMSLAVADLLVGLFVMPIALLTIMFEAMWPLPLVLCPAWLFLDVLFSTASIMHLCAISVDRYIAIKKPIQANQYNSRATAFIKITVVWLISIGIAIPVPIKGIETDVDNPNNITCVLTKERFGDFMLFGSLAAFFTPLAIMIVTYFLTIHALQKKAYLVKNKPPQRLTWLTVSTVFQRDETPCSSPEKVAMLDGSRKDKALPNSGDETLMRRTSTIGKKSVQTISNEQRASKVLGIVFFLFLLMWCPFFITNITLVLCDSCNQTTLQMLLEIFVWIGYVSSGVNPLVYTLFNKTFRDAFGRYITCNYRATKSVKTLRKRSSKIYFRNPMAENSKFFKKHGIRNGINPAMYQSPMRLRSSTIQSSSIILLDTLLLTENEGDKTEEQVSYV

Estrogen receptor = Estrogen receptor (Homo sapiens, UniProt P03372); assay: Binding affinity to human recombinant ERalpha
Phosphodiesterase 3 = Phosphodiesterase 3 (Homo sapiens, UniProt Q14432+Q13370); assay: Binding affinity to human recombinant PDE3; format: protein assay
[21] = target: Prostaglandin G/H synthase 2 (Homo sapiens, UniProt P35354); assay: Binding affinity to human recombinant COX2
Sequence of Prostaglandin G/H synthase 2 (P35354 whole entry): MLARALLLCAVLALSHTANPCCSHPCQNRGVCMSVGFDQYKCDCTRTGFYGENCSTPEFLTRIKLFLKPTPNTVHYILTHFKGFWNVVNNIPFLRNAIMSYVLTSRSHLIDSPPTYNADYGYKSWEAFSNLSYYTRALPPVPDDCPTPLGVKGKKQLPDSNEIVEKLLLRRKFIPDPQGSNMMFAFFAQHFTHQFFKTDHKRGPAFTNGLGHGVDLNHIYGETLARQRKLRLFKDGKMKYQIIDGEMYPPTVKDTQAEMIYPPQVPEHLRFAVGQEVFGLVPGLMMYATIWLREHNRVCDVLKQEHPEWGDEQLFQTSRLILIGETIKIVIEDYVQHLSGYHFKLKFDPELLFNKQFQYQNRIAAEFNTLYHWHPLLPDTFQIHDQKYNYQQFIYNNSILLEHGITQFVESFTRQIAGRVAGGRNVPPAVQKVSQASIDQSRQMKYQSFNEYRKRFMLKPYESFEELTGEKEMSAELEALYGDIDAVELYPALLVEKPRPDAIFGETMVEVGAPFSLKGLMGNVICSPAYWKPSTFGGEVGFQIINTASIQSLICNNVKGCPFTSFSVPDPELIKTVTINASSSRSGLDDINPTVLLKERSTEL

[22] = Intrinsic clearance in monkey liver microsome; format: ADME, Macaca mulatta; details: rhesus monkey, liver microsomes
Motilin receptor = Motilin receptor (Homo sapiens, UniProt O43193); assay: Binding affinity to human recombinant motilin receptor
Plasmodium falciparum [23] = assay: Inhibition of protein synthesis in NITD609-resistant Plasmodium falciparum Dd2 Clone3 within 1 hrs by [35S]Met/Cys incorporation assay; format: functional
[24] = Binding affinity to human recombinant nicotinic (CNS) receptor
Androgen receptor = Androgen receptor (Homo sapiens, UniProt P10275); assay: Binding affinity to human recombinant androgen receptor
[25] = target: Alpha-1A adrenergic receptor (Homo sapiens, UniProt P35348); assay: Binding affinity to human recombinant alpha 1a receptor
Plasmodium berghei [26] = assay: Antimalarial activity against Plasmodium berghei GFP ANKA infected in NMRI mice (Mus musculus) assessed as cure rate at 30 mg/kg, perorally administered as single dose 24 hrs post infection for 1 day measured 30 days post infection; format: functional; details: route oral
[27] = target: Hydroxycarboxylic acid receptor 2 (Homo sapiens, UniProt Q8TDS4); assay: Binding affinity to human recombinant niacin receptor
[28] = AUC (0 to infinity) in Wistar rat at 5 mg/kg, iv; format: ADME, organism-based; set-up: time infinity, dose 5 mg/kg, route intravenous; details: plasma
[29] = target: Muscarinic acetylcholine receptor M3 (Homo sapiens, UniProt P20309); assay: Binding affinity to human recombinant muscarinic M3 receptor
Plasmodium berghei [30] = assay: Antimalarial activity against Plasmodium berghei GFP ANKA infected in NMRI mice (Mus musculus) assessed as survival at 100 mg/kg, perorally administered as single dose 24 hrs post infection for 1 day measured 72 hrs post infection; format: functional; details: route oral
[31] = target: Corticotropin-releasing factor receptor 2 (Homo sapiens, UniProt Q13324); assay: Binding affinity to human recombinant CRF2alpha receptor
[32] = target: Alpha-2C adrenergic receptor (Homo sapiens, UniProt P18825); assay: Binding affinity to human recombinant alpha2c receptor
Sequence of Alpha-2C adrenergic receptor (P18825 whole entry): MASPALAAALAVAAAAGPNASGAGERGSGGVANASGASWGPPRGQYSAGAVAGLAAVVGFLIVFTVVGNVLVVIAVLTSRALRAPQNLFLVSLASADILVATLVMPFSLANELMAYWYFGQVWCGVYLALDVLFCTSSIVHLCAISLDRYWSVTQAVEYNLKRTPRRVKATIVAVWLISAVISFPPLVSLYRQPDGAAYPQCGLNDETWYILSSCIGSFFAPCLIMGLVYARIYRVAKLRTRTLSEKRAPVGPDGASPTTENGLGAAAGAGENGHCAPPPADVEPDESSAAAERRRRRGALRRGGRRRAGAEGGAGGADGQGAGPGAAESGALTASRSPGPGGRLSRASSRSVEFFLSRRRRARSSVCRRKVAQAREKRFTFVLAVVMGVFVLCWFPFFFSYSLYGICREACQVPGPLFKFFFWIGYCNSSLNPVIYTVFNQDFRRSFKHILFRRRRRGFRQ

[33] = target: Beta-1 adrenergic receptor (Homo sapiens, UniProt P08588); assay: Binding affinity to human recombinant adrenergic beta-1 receptor
Sequence of Beta-1 adrenergic receptor (P08588 whole entry): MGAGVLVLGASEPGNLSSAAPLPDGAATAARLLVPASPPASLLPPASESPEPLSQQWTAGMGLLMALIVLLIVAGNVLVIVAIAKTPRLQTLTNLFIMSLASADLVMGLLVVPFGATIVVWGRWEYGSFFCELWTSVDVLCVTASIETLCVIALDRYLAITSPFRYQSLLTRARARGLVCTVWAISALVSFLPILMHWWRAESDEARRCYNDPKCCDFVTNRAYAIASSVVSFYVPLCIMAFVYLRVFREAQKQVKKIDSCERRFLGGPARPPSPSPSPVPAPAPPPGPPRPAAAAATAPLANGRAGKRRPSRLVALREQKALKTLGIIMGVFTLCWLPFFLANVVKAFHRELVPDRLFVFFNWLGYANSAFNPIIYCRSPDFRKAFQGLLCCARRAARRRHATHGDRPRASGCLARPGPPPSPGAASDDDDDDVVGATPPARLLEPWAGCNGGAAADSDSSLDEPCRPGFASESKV

[34] = Intrinsic clearance in mouse liver microsome; format: ADME; details: liver microsomes
[35] = Solubility in pH 6.8 nuffer; format: physicochemical; details: buffer
[36] = Binding affinity to rat benzodiazepine receptor
[37] = target: 5-hydroxytryptamine receptor 1A (Homo sapiens, UniProt P08908); assay: Binding affinity to human recombinant serotonin 5-HT1A receptor

C[C@H]1Cc2c([nH]c3cc(Cl)c(F)cc23)[C@@]2(N1)C(=O)Nc1ccc(Cl)cc12 [CIPARGAMIN]
CLint scaled [1]: 5.8 mL/min/kg | IC50 (Plasmodium falciparum [2]): 0.0014 µM | IC50 [3]: > 10 µM | IC50 (D(4) dopamine receptor): > 10 µM | logD [4]: 4.7 | ED50 (Plasmodium berghei [5]): 1.2 mg/kg | ED99 (Plasmodium berghei [5]): 5.3 mg/kg | IC50 (Histamine H2 receptor): > 10 µM | IC50 [6]: > 10 µM | IC50 (Plasmodium falciparum [7]): 0.0012 µM | IC50 [8]: 30.4 µM | IC50 [9]: > 10 µM | IC50 (Histamine H1 receptor): > 10 µM | Survival (Plasmodium berghei [10]): 24.4 days | IC50 (Plasmodium falciparum [11]): 0.0028 µM | IC50 (Endothelin-1 receptor): > 30 µM | IC50 (Plasmodium falciparum [12]): 0.0007 µM | IC50 (Vasopressin V1a receptor): > 10 µM | Activity (Plasmodium berghei [13]): 99.8% | bioavailability [14]: 100% | half-life (in vivo): 3.44 h | IC50 [15]: > 30 µM | IC50 (Glucocorticoid receptor): > 30 µM | IC50 [16]: > 30 µM | Activity [17]: Non-toxic | IC50 (B1 bradykinin receptor): > 30 µM | Activity (Plasmodium berghei [18]): 100% | IC50 [19]: > 10 µM | IC50 [20]: > 10 µM | IC50 (Estrogen receptor): > 30 µM | IC50 (Phosphodiesterase 3): > 10 µM | IC50 [21]: > 30 µM | CLint scaled [22]: 6.05 mL/min/kg | IC50 (Motilin receptor): > 10 µM | inhibition (INH) (Plasmodium falciparum [23]): 50% | IC50 [24]: > 10 µM | IC50 (Androgen receptor): > 30 µM | IC50 [25]: > 10 µM | Activity (Plasmodium berghei [26]): 50% | IC50 [27]: > 10 µM | AUC(0-inf) [28]: 61.3 µM·h | IC50 [29]: > 10 µM | Survival (Plasmodium berghei [30]): >30 days | IC50 [31]: > 30 µM | IC50 [32]: > 10 µM | IC50 [33]: > 10 µM | CLint scaled [34]: 49.7 mL/min/kg | solubility [35]: 39 µg/mL (≈ 99.9 µM) | IC50 [36]: > 10 µM | IC50 [37]: > 10 µM
